From patent publication US8133491B1, “Compositions and methods for treatment of hyperplastic disorders” (priority 2009, dated 2012)

Assays:
[1] = test system: prostate; experiment: Intraprostatic injection in rats: prostate weight / size; design: species or system Sprague-Dawley rats; conditions: rat, in vivo
[2] = test system: prostate; experiment: Histology (hematoxylin and eosin) of injected rat prostates; design: species or system Sprague-Dawley rats; conditions: in vivo
Description: (§1) Rats were anesthetized with isoflurane gas. The hair was shaved and the incision region was scrubbed with Betadine. A lower abdominal midline incision was made providing exposure to the bladder and prostate. 0.1 mL of toxin or saline was injected into each right and left ventral lobe using a 30-gauge needle. The abdominal wall and skin were then closed in two layers. After 2 weeks the animals were sacrificed by an overdose of sodium Pentobarbital (200 mg/kg i.p.) The prostates were removed en bloc along with the bladder and urethra. The prostates were then carefully dissected from the bladder neck and urethra, weighed and fixed in 10% phosphate buffered formalin.
The fixed prostates were embedded in paraffin and sectioned at a thickness of 4 microns. Sections were stained with hematoxylin and eosin and analyzed for morphology. […] Under 400× magnification, four random areas of the ventral prostate from each animal were examined and the total numbers of stained and unstained cells were counted in the entire field. […] The mean number of stained and unstained cells was determined for each animal.

[3] = test system: ventral prostate; experiment: TUNEL stain for apoptosis in prostate sections; design: species or system Sprague-Dawley rats; conditions: rat, in vivo
Description: (§2) The fixed prostates were embedded in paraffin and sectioned at a thickness of 4 microns. Sections were stained with hematoxylin and eosin and analyzed for morphology. Immunohistochemical analysis was performed on prostate sections for evidence of apoptosis with TUNEL stain (terminal deoxynucleotidyl-mediated deoxyuridine triphosphate nick end labeling) using a commercially available kit (GenScript Corporation, Piscataway, N.J.), and for cellular proliferation with PCNA stain (proliferating cell nuclear antigen) using a commercially available kit (Invitrogen Corporation, Camarillo, Calif.). A stained slide from each animal was randomly assigned a number in a blind fashion. Under 400× magnification, four random areas of the ventral prostate from each animal were examined and the total numbers of stained and unstained cells were counted in the entire field. This was done for both TUNEL and PCNA stained slides for each animal. The mean number of stained and unstained cells was determined for each animal.

[4] = test system: ventral prostate; experiment: PCNA stain for cellular proliferation in prostate sections; design: species or system Sprague-Dawley rats; conditions: rat, in vivo
Description: as §2

[5] = Body weight and complications after intraprostatic injection; design: species or system Sprague-Dawley rats; conditions: rat, in vivo
From the text: Eighteen adult male Sprague-Dawley rats (420-560 g) were used in this study. The animals were housed in the animal care center under controlled lighting conditions (lights on 6 AM-6 PM), with food and water always available. The animals were monitored for behavior, food and water intake, and weight. Subsequent experiments were approved by the University of Toledo's Institutional Animal Care and Use Committee.
as §1

[6] = test system: prostate; conditions: rat, in vivo; cited from earlier work

Botulinum toxin type A [BTA]
Prostate Wt (grams) Mean [1]: 2.627 grams
Prostate Wt /100 g Body Wt Mean [1]: 0.586
prostate size / weight (in words) [1]: did not show a statistically significant decrease in prostatic weight
histology of prostate (in words) [2]: prostatic atrophy of the glandular component with flattening of the epithelial lining
TUNEL Assay # of Apoptotic Cells Mean [3]: 211.1
number of apoptotic cells, TUNEL staining (in words) [3]: significant increase in the number of apoptotic cells
PCNA Assay # of Proliferating Cells Mean [4]: 26.2
cellular proliferation, PCNA staining (in words) [4]: significant increase in cellular proliferation
2 wks Post-Injection Wt (grams) Mean [5]: 449 grams
Change in Body Weight Mean [5]: −51.667
Pre-Injection Wt (grams) Mean [5]: 501 grams
body weight (in words) [5]: significant loss in body weight
prostatic weight (Doggweiler et al.) [6]: decrease in prostatic weight
